Results on two compounds are retold here after US12578271B2, “Gram-stain differentiation with nonlinear light scattering” (Temple University—Of The Commonwealth System of Higher …, priority 2020, dated 2026).

Series [1] deals with E. coli (mc4100 strain). Put plainly: time-resolved second-harmonic scattering (SHS) of dye uptake by living bacteria, Gram-negative. In kind it is cell-based. Here is the method: (§1) Discrete colonies of E. coli (mc4100 strain) and L. rhamnosus ([…] strain) were grown on Luria Broth agar (Sigma-Aldrich) plates. Experimental samples, prepared from single colonies, were cultured (37° C., 150 rpm shaking) in Terrific Broth (TB, Sigma-Aldrich) to late-log/early stationary phase. Samples were lightly pelletized by centrifugation (ca. 1500 g for 2 min) and washed in 1×PBS to remove waste and residual TB. […] Final sample concentrations were maintained at 10 μM (MG) and 50 μM (CV). The 800 nm output from a Ti:sapphire laser (Coherent, […], oscillator only, 50 fs pulse duration, 4 nJ pulse energy, 76 MHz repetition rate, 0.4 W average power) was used as a fundamental light source. As depicted in FIG. 2A, SHS was measured while the sample circulated through a liquid flow system. To ensure collection of the SH signal solely from the sample, a long-pass filter (Schott, RG695) was placed in front of the focusing lens immediately before the sample jet. […] The signal was then detected by a photomultiplier (Hamamatsu, […]), amplified (Stanford Research Systems, SR440), and processed through a correlated photon counting system (Stanford Research Systems, SRS SR400). As a means of separating the surface specific SH response from the hyper-Rayleigh scattering (HRS) of the bulk dye solution, SHS was first measured from the dye solution in the absence of cells. […] To ensure rapid mixing of the suspension, in addition to circulating through the system, the contents of the sample reservoir were continuously stirred.

The test system of series [2] is L. rhamnosus (R0011 strain). Kind of series: time-resolved second-harmonic scattering (SHS) of dye uptake by living bacteria, Gram-positive. It is filed as cell-based, Lactobacillus (L.) rhamnosus. As to the method:
as §1

In series [3] the test system is E. coli (mc4100 strain). Conditions: prior SHS studies, living E. coli; cited from earlier work.
The conditions of series [4]: pH=7.2; cited from earlier work.
Where [5] appears, read: E. coli added ca. 10 s, 10 μM MG, 50 μM CV, FIG. 2B.

Consider `CN(C)c1ccc(C(=C2C=CC(=[N+](C)C)C=C2)c2ccc(N(C)C)cc2)cc1` [CV, crystal violet], for which the “time of onset of second rise of SHS signal (dye has diffused across PM and adsorbs onto outer surface of CM)” value with E. coli (mc4100 strain) [1] (setting [5]) was “roughly 70 s”. Also, the “time until which second rise of SHS signal continues to grow, then stable plateau” value in the series on E. coli (mc4100 strain) [1] (E. coli added ca. 10 s, 50 μM CV, FIG. 2B) is listed as “about 400 s”. Moreover, the “late time SHS signal relative to HRS baseline” value in the series on E. coli (mc4100 strain) [1] (Gram-negative cells, 50 μM CV, FIG. 4) was “positive response”; in series [2] (Gram-positive cells, 50 μM CV, FIG. 4) it was “negative response”. The “fraction of CV from the bulk extracellular solution drawn into the Gram-positive cells” value in series [2] (50 μM CV) is given as “ca. 30%”. Also, the “reduction of the HRS background” value in series [2] (50 μM CV, after fast transport event, observation time 2000+ s, FIG. 4) was found to be 30%. Further, the “removal of CV from the bulk solution” value in series [2] (50 μM CV, inferred from reduction of HRS background) is “ca. 15 μM”. In addition, the “second rise of SHS signal (arrival at CM)” value in series [2] (within the 2000+ s observation time, also at higher concentrations) was “no second rise of SHS signal is ever observed”. Also, in the series on E. coli (mc4100 strain) [3], the “ability to cross bacterial membranes (OM, CM)” value was “unable to cross the bacterial CM”. Moreover, in series [4], the “fraction of molecules that are cationic” value was 100%.

With `CN(C)c1ccc(C(=C2C=CC(=[N+](C)C)C=C2)c2ccccc2)cc1` [MG, malachite green], the “time of onset of second rise of SHS signal (dye has diffused across PM and adsorbs onto outer surface of CM)” value in the series on E. coli (mc4100 strain) [1] (setting [5]) is “around 25 s”. Moreover, the “time of second decay of SHS signal (dye crosses the CM)” value in the series with E. coli (mc4100 strain) [1] (E. coli added ca. 10 s, 10 μM MG, FIG. 2B) is listed as ~120 s. Further, the “MG uptake kinetics compared with E. coli” value in series [2] (10 μM MG, FIG. 6) was “nearly identical transport curves”. In the series on E. coli (mc4100 strain) [3], the “ability to cross bacterial membranes (OM, CM)” value was “cross both the OM and CM”. In addition, in series [4], the “fraction of molecules in solution that are neutral” value is given as “more than 50%”.
